Holding throughout (test): inhibition of tumour cell growth, NCI panel, 48 h
Experiment [1] concerns 786-0.
The subject of experiment [2] is A549.
Experiment [3] has as its system ACHN.
In experiment [4] the test system is CCRF-CEM.
The subject of experiment [5] is HCT-116.
Experiment [6] concerns HCT-15.
The subject of experiment [7] is HL-60.
The test system of experiment [8] is IGROV-1.
Experiment [9] concerns MCF7.
The test system of experiment [10] is MDA-MB-231.
Experiment [11] relates to NCI-H460.
For experiment [12], the system named is OVCAR-5.
The test system of experiment [13] is OVCAR-8.
Experiment [14] relates to PC-3.
In experiment [15] the test system is SF-268.
In experiment [16] the test system is SK-MEL-28.
Experiment [17] has as its system SK-OV-3.
Experiment [18] concerns SN12C.
Experiment [19] deals with T47D.
The subject of experiment [20] is U-251.

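Dose response: 5 concentrations. Exposure: 48 h. Format: 96-well plates. Endpoint: linear interpolation; highest concentration if not reached. At the GI50, growth is halved.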 The source made the active and inactive calls. No stated cut-off is given here; in the data, active = GI50 up to about 1.1 µM and inactive = higher. Bounds are passed on as bounds.

`N#Cc1cccc(C2ON=C(c3ccc([N+](=O)[O-])cc3)N2C23CC4CC(CC(C4)C2)C3)c1` (stereo not given): the GI50 in experiment [1] was > 100 µM (inactive); in [2] it was 27.4 µM (inactive); in experiment [3], > 100 µM (inactive); in [4], > 100 µM (inactive); in experiment [5], 6.21 µM (inactive); in experiment [6], 66.8 µM. Also, the GI50 in [7] is 8.69 µM (inactive); in [8] it was > 100 µM (inactive); in experiment [9], 34.4 µM (inactive); in [10], 63.7 µM (inactive); in [11], > 100 µM (inactive); in experiment [12] it was 3.21 µM (inactive). The GI50 in experiment [13] was > 100 µM (inactive); in experiment [14], 5.2 µM (inactive); in [15] it was > 100 µM (inactive); in experiment [16], > 100 µM (inactive); in experiment [17], > 100 µM (inactive); in [18], > 100 µM (inactive). The GI50 is 17.3 µM (inactive) in experiment [19] and > 100 µM (inactive) in experiment [20].

Take `CC(C)c1c(O)ccc2c1CCC1C(C)(C)CCCC21C` (stereo not given): the GI50 in experiment [1] is 18.1 µM (inactive); in [2], 17 µM (inactive); in [3], 17.1 µM (inactive); in experiment [4] it was 24.4 µM (inactive); in [5], 17.2 µM (inactive); in [6], 18.9 µM. Moreover, the GI50 in experiment [7] was 29 µM (inactive); in experiment [8], 16.3 µM (inactive); in experiment [9] it was 19.1 µM (inactive); in experiment [10] it was 19 µM (inactive); in [11], 17.4 µM (inactive); in [12], 14.6 µM (inactive). For the same molecule, the GI50 in experiment [13] was 17.8 µM (inactive); in experiment [14], 17.6 µM (inactive); in experiment [15], 19.9 µM (inactive); in [16] it was 21.3 µM (inactive); in [17], 18.9 µM (inactive); in experiment [18] it was 14.5 µM (inactive). In addition, the GI50 in experiment [19] was 0.0173 µM (active); in experiment [20], 18 µM (inactive).

For `CC1CC(C)[C@H](O)C([C@H](O)CC2CC(=O)N(C)C(=O)C2)C1` (stereo not given in full), the GI50 was > 100 µM (inactive) in [1]; > 100 µM (inactive) in experiment [2]; > 100 µM (inactive) in experiment [3]; > 100 µM (inactive) in experiment [4]; > 100 µM (inactive) in experiment [5]; above 100 µM in [6]. For the same molecule, the GI50 in experiment [7], in experiment [8], in experiment [9], in [10], in [11] and in experiment [12] was > 100 µM (inactive) in each case. In addition, the GI50 in [13], in experiment [14], in [15], in experiment [16], in experiment [17] and in [18] was > 100 µM (inactive) throughout. Further, the GI50 in experiment [19] and in experiment [20] was > 100 µM (inactive) in each case.

For `O=C1c2ccccc2C(=O)c2sc(Nc3ccccc3Cl)nc21`, the GI50 is 14.6 µM (inactive) in [1]; 19.8 µM (inactive) in [2]; 5.68 µM (inactive) in experiment [3]; 2.75 µM (inactive) in experiment [4]; 10.7 µM (inactive) in [5]; 9.38 µM in experiment [6]. For the same molecule, the GI50 in experiment [7] is 0.713 µM (active); in [8], 13.9 µM (inactive); in experiment [9], 14.3 µM (inactive); in [10], 3.78 µM (inactive); in experiment [11] it was 12.9 µM (inactive); in experiment [12], 19.8 µM (inactive). Besides, the GI50 is 5.85 µM (inactive) in [13]; 12.7 µM (inactive) in experiment [14]; 9.29 µM (inactive) in experiment [15]; 15.1 µM (inactive) in experiment [16]; 19.5 µM (inactive) in experiment [17]; 7.5 µM (inactive) in experiment [18]. Moreover, the GI50 was 11.1 µM (inactive) in [19] and 4.93 µM (inactive) in experiment [20].

For the molecule `O=C(O)c1cnc2cc(OCc3ccccc3)ccc2c1O`, the GI50 was 18.5 µM (inactive) in experiment [1]; 19.5 µM (inactive) in experiment [2]; 18.5 µM (inactive) in experiment [3]; 5.37 µM (inactive) in [4]; 17.2 µM (inactive) in experiment [5]; 17.8 µM in experiment [6]. Besides, the GI50 in experiment [7] is 0.256 µM (active); in experiment [8], 18.3 µM (inactive); in [9], 20.1 µM (inactive); in [10], 20.6 µM (inactive); in [11], 19.4 µM (inactive); in experiment [12], 27.3 µM (inactive). For the same molecule, the GI50 in experiment [13] is 19 µM (inactive); in [14], 17.1 µM (inactive); in experiment [15], 16 µM (inactive); in experiment [16], 16 µM (inactive); in experiment [17], 22.1 µM (inactive); in [18], 18.2 µM (inactive). The GI50 in experiment [19] is 17.8 µM (inactive); in [20] it was 18.6 µM (inactive).

For `COc1ccc2c(c1)CC[C@@H]1[C@@H]2CC[C@]2(C)/C(=N/OCCN3CCCCC3)CC[C@@H]12`, the GI50 was 1.85 µM (inactive) in [1]; 5.35 µM (inactive) in [2]; 8.81 µM (inactive) in experiment [3]; 3.28 µM (inactive) in experiment [4]; 2.38 µM (inactive) in [5]; 2.03 µM in experiment [6]. The GI50 was 2.79 µM (inactive) in [7]; 1.95 µM (inactive) in experiment [8]; 6.95 µM (inactive) in experiment [9]; 8.41 µM (inactive) in experiment [10]; 2.5 µM (inactive) in experiment [11]; 5.33 µM (inactive) in [12]. Besides, the GI50 in experiment [13] is 9.79 µM (inactive); in experiment [14], 4.74 µM (inactive); in experiment [15], 9.2 µM (inactive); in experiment [16], 2.12 µM (inactive); in [17], 10.3 µM (inactive); in [18], 4.34 µM (inactive). Further, the GI50 was 5.46 µM (inactive) in experiment [19] and 8.09 µM (inactive) in experiment [20].

Consider `CC(C)(C)c1ccc2c(c1)OCc1n[nH]c(n1)COc1cc(C(C)(C)C)ccc1OCCOCCO2`, for which the GI50 in experiment [1] is 4.45 µM (inactive); in experiment [2], 3.01 µM (inactive); in experiment [3], 4.39 µM (inactive); in experiment [4] it was 5.31 µM (inactive); in experiment [5], 4.31 µM (inactive); in [6], 4.95 µM. Further, the GI50 in experiment [7] was 4.35 µM (inactive); in experiment [8], 5.69 µM (inactive); in experiment [9], 3.31 µM (inactive); in experiment [10] it was 9.48 µM (inactive); in experiment [11], 3.13 µM (inactive); in [12], 5.96 µM (inactive). In addition, the GI50 was 3.79 µM (inactive) in experiment [13]; 2.41 µM (inactive) in experiment [14]; 4.37 µM (inactive) in experiment [15]; 2.7 µM (inactive) in [16]; 3.77 µM (inactive) in [17]; 4.55 µM (inactive) in experiment [18]. Further, the GI50 is 3.48 µM (inactive) in experiment [19] and 2.8 µM (inactive) in experiment [20].

For the origin of these results see ChEMBL document CHEMBL1201862, “PubChem BioAssay data set” (2004).
